Holding throughout (assay type): cell-based
Experiment [1] deals with Salmonella enteritidis KCTC 12400. As to the kind of experiment: MIC by broth dilution method. To be noted: S. enteritidis, 37° C., 24 hours. Background: Dilution methods test growth across graded concentrations, often in twofold steps.
For experiment [2], the system named is Escherichia coli KCTC 1039. As to the kind of experiment: MIC by broth dilution method. Conditions: E. coli, 37° C., 24 hours.
Experiment [3] has as its system Vibrio parahaemolyticus KCTC 27. The experiment in a line: MIC by broth dilution method. To be noted: V. parahaemolyticus, 37° C., 24 hours.
The test system of experiment [4] is Salmonella typhimurium KCTC 2514. The experiment in a line: MIC by broth dilution method. To be noted: S. typhimurium, 37° C., 24 hours.
For experiment [5], the system named is Staphylococcus aureus KCTC 1916. As to the kind of experiment: MIC by broth dilution method. Conditions: S. aureus, 37° C., 24 hours.
Experiment [6] relates to 18 species of pathogenic bacteria (aerobic). As to the kind of experiment: Agar diffusion antibacterial test, overall (aerobic). To be noted: all kinds of bacteria (aerobic); treatment concentration of 1.0%. (Agar diffusion results depend on both activity and mobility in agar.)
Experiment [7] relates to 8 anaerobic bacterial species. The experiment in a line: Agar diffusion antibacterial test, overall (anaerobic). To be noted: anaerobic bacteria; concentration of 1.0%.

In the case of `O=C1C(N(CO)C(=O)NCO)N(CO)C(=O)N1CO` (stereo not drawn) [Germall II], the MIC in experiment [1] stood at 0.01%; in experiment [2], 0.005%; in experiment [3], 0.02%; in experiment [4] it was 0.02%; in experiment [5] it was 0.03%.
With `C/C=C/C=C/C(=O)O` [Sorbic acid, reference compound], the MIC is reported as 0.01% in experiment [1]; 0.01% in experiment [2]; 0.03% in experiment [3]; 0.03% in experiment [4]; 0.04% in experiment [5].
`C=C1C(=O)OC[C@@H]1O` [R-(+)-tulipalin B, (4R)-4-hydroxy-3-methylene-oxolan-2-one, reference compound]: the Antibacterial effects result in experiment [6] is reported as “no antibacterial effects”. In experiment [7], the Antibacterial activity entry is given as “no antibacterial activity”.

The values above are taken from US20080262082A1, “COMPOSITION CONTAINING S-(-)-TULIPALIN B OR ACETYLATED-S-(-)-TULIPALIN B” (BIO SPECTRUM, INC., priority 2007, published 2008).
